The test system of series [1] is Bacillus pumilus strain K-1. Put plainly: Inhibition of bacterial growth, filter paper on inoculated agar plates. In kind it is cell-based. The note with it: for zone of inhibition at 1000 µM / zone of inhibition at 100 µM: Bacillus pumilus, read-out: Diameter of Inhibition. As for the experimental part:
Nutrient broth was prepared by mixing 8 grams of BACTO dehydrated nutrient broth per liter of distilled water. […] Samples of the nutrient broth were then inoculated with Bacillus pumilus strain K-1 culture. […]
Nutrient agar was prepared by mixing 23 grams of BACTO nutrient agar per liter of distilled water. The nutrient agar was sterilized in the same way as the nutrient broth. After it has cooled to about 45° C. 250 ml of the nutrient agar solution was aeseptically inoculated with 5 ml of the Bacillus pumilus, K-1 culture prepared in (A), above. Plates of the inoculated nutrient agar were then poured and allowed to harden.
[…] To minimize possible photocatalyzed reactions of the dyes, all preparations were performed under yellow lights and all incubations were performed in the dark.
Schleider and Schuell #740-E filter paper (12.7 mm diameter) was dipped in the dye solution, touched to the side of the beaker to removed excess dye, and placed in the center of the inoculated agar plates (prepared in (B) above). […] The plates were then examined to determine if bacterial growth had been affected by the dye-containing filter paper. […]
Control plates were prepared in which the filter paper contained methanol or a 0.2 molar aqueous solution of phenol. […]

The conditions of series [2]: not told.
Series [3] relates to Bacillus pumilus (K-1). As for the experimental part: This can be accomplished by contacting a given concentration of the dye with the cells, removing the cells from the dye solution and then comparing the optical density (at λmax) of the remaining dye solution with a control containing the original concentration of the dye. The percentage decrease in optical density indicates the percentage of dye which has been bound to the cells.
The culture was collected by centrifugation at 5,000×g. for 10 minutes, and the resultant pellet was washed several times in cold 0.05 M potassium phosphate buffer, pH 7.0. The pellet was resuspended in the buffer solution to a final optical density of 1.0 at 620 nm as measured with a Bausch and Lomb Spectronic 20.
One-tenth ml of dye solution (1 mg/ml in methanol) was added to a tube containing 5 ml of cell suspension described above and a control tube containing 0.05 M potassium phosphate buffer, pH 7.0. All tubes were well agitated using a Vari-Whirl Mixer (Will Scientific Co.) and then centrifuged at 10,000×g. for 10 minutes.
The percent binding of dye to the cells for each dye, was determined by comparison of the density at λmax of the control supernatant sample with the density at λmax of the supernatant of the cell sample.

Where [4] appears, read: K1, 72 h, Tables V and VI, 10^-3 molar, three days.
The mark [5] stands for this setting: Tables V and VI, 10^-3 molar, three days.
The mark [6] stands for this setting: K1, Table II, 10^-4 molar, 26° C., forty-eight hours.

SMILES strings stand for the structures. Like-named read-outs stand apart in the source and are kept apart here.

For the molecule `CCOc1ccc2c(c1)N(CC)C(=CC=Cc1oc3ccc(OCC)cc3[n+]1CC)O2` [7,5,5'-diethoxy], the zone of inhibition at 1000 µM in series [1] (setting [4]) stood at 14 mm. Turning to `CCc1ccc2c(c1)N(CC)C(=CC=Cc1oc3ccc(CC)cc3[n+]1CC)O2` [7,5,5'-diethyl], in series [1] (setting [4]), the zone of inhibition at 1000 µM came to 23 mm.

Turning to `CCOc1ccc2c(c1)OC(=CC=Cc1oc3cc(OCC)ccc3[n+]1CC)N2CC` [7,6,6'-diethoxy], the zone of inhibition at 1000 µM in series [1] (setting [4]) stood at 16 mm. On the same count and under the same terms, in the case of `CCN1C(=CC=Cc2oc3cccc(O)c3[n+]2CC)Oc2cccc(O)c21` [7,4,4'-dihydroxy] it was 13 mm. Consider `CCN1C(=CC=Cc2oc3c(-c4ccccc4)cccc3[n+]2CC)Oc2c(-c3ccccc3)cccc21` [7,7,7'-diphenyl], for which the “Diameter of Inhibition” value in series [1] (setting [5]) is reported as “None”. Turning to `CCN1C(=CC=Cc2oc3ccc(Cl)cc3[n+]2CC)Oc2ccc(Cl)cc21` [7,5,5'-dichloro], in series [1] (setting [4]), the zone of inhibition at 1000 µM was 26.5 mm. For `CCN1C(=CC=Cc2oc3cc(S(=O)(=O)O)ccc3[n+]2CC)Oc2cc(S(=O)(=O)[O-])ccc21` [Dye 8], the “Activity Rating” value in series [1] was 0. Moreover, the “Diameter of Inhibition” value in series [1] (Table IX, 10^-3 M) is on record as “None”. Moreover, the “reduction potential (ER)” value in series [2] was -1.26 volts. The “% Bound” value in series [3] is listed as 2.6%. `CCN1C(=CC=Cc2oc3ccc(OC(C)=O)cc3[n+]2CC)Oc2ccc(OC(C)=O)cc21` [Dye 10]: the “Activity Rating” value in series [1] is recorded as 80. Besides, the zone of inhibition at 1000 µM in series [1] (K1, Table IX, 10^-3 M) is 28.5 mm. Further, in series [2], the ER is -1.17 and the “reduction potential (ER)” value was -1.17 volts. The “% Bound” value in series [3] was 68.8%. For the molecule `CN1C(=CC=Cc2oc3cc([N+](=O)[O-])ccc3[n+]2C)Oc2cc([N+](=O)[O-])ccc21` [7,6,6'-dinitro-N,N'-methyl], the “Diameter of Inhibition” value in series [1] (setting [5]) was “None”. As for `CCN1C(=CC=Cc2sc3ccc(C)cc3[n+]2CC)Sc2ccc(C)cc21` [17,5,5'-dimethyl], the zone of inhibition at 1000 µM in series [1] (setting [4]) amounted to 14 mm.

`CCN1C(=CC=Cc2sc3c(OC)cccc3[n+]2CC)Sc2c(OC)cccc21` [17,7,7'-dimethoxy]: the zone of inhibition at 1000 µM in series [1] (setting [4]) worked out at 14.5 mm. For `CN1C(=CC=Cc2oc3ccc([N+](=O)[O-])cc3[n+]2C)Oc2ccc([N+](=O)[O-])cc21` [7,5,5'-dinitro-N,N'-methyl], the “Diameter of Inhibition” value in series [1] (setting [5]) is given as “None”. `CCOc1ccc2c(c1)SC(=CC=Cc1sc3cc(OCC)ccc3[n+]1CC)N2CC` [17,6,6'-diethoxy]: the zone of inhibition at 1000 µM in series [1] (setting [4]) amounted to 15 mm. Turning to `CCN1C(=CC=CC=Cc2sc3ccccc3[n+]2CC)Sc2ccccc21` [Dye 22], the zone of inhibition at 100 µM in series [1] (setting [6]) stood at 15 mm; in series [1] (K1, Table IX, 10^-4 M), 15 mm. The “Activity Rating” value in series [1] (Table IX, 10^-4 M, relative to phenol concentration giving equal diameter, Dye 7 = 100) is given as 11. Also, in series [2], the “reduction potential (ER)” value is recorded as -0.83 volts. For the same molecule, in series [3], the “% Bound” value is listed as 98.4%. With `CN1C(=CC=Cc2oc3ccc(C#N)cc3[n+]2C)Oc2ccc(C#N)cc21` [7,5,5'-dicyano-N,N'-methyl], the “Diameter of Inhibition” value in series [1] (setting [5]) is listed as “None”. Moreover, in series [2], the ER result is listed as “-.99”.

For `CCN1C(=CC=Cc2oc3cccc(OC(C)=O)c3[n+]2CC)Oc2cccc(OC(C)=O)c21` [7,4,4'-diacetoxy], the zone of inhibition at 1000 µM in series [1] (setting [4]) worked out at 15 mm. Take `CCN1C(=CC=Cc2sc3cc(Br)ccc3[n+]2CC)Sc2cc(Br)ccc21` [17,6,6'-dibromo]: the “Diameter of Inhibition” value in series [1] (setting [5]) is on record as “None”. In addition, in series [2], the ER entry is reported as “-.88”. As for `CCN1C(=CC=Cc2oc3cc(-c4ccccc4)ccc3[n+]2CC)Oc2cc(-c3ccccc3)ccc21` [7,6,6'-diphenyl], the “Diameter of Inhibition” value in series [1] (setting [5]) is recorded as “None”. For `CN1C(=CC=Cc2oc3ccc(C(=O)O)cc3[n+]2C)Oc2ccc(C(=O)O)cc21` [7,5,5'-dicarboxy-N,N'-methyl], the “Diameter of Inhibition” value in series [1] (setting [5]) was “None”. On to `CCN1C(=CC=Cc2sc3cc(OC(C)=O)ccc3[n+]2CC)Sc2cc(OC(C)=O)ccc21` [17,6,6'-diacetoxy], for which the zone of inhibition at 1000 µM in series [1] (setting [4]) turned out to be 17 mm. `CCN1C(=CC(C)=Cc2sc3ccccc3[n+]2CC)Sc2ccccc21` [Dye 11]: in series [1], the “Activity Rating” value is listed as 25. Further, in series [1] (setting [6]), the zone of inhibition at 100 µM was found to be 18 mm. Also, the zone of inhibition at 100 µM in series [1] (K1, Table IX, 10^-4 M) amounted to 18 mm. Besides, in series [2], the ER is recorded as -1.16 and the “reduction potential (ER)” value is -1.16 volts. The “% Bound” value in series [3] is 98.9%.

In the case of `CN1C(=CC=Cc2sc3cc(C#N)ccc3[n+]2C)Sc2cc(C#N)ccc21` [17,6,6'-dicyano-N,N'-dimethyl], the “Diameter of Inhibition” value in series [1] (setting [5]) is “None”.

`CCN1C(=CC=Cc2sc3ccc(Br)cc3[n+]2CC)Sc2ccc(Br)cc21` [17,5,5'-dibromo]: the zone of inhibition at 1000 µM in series [1] (setting [4]) stood at 13.5 mm. Take `CCN1C(=CC=Cc2sc3cccc(OC)c3[n+]2CC)Sc2cccc(OC)c21` [17,4,4'-dimethoxy]: in series [1] (setting [4]), the zone of inhibition at 1000 µM is 17.5 mm.

As for `CCN1C(=CC=Cc2sc3cc(OC)ccc3[n+]2CC)Sc2cc(OC)ccc21` [17,6,6'-dimethoxy], the zone of inhibition at 1000 µM in series [1] (setting [4]) turned out to be 15 mm.

For `CCN1C(=CC=Cc2sc3cc(F)ccc3[n+]2CC)Sc2cc(F)ccc21` [17,6,6'-difluoro], the zone of inhibition at 1000 µM in series [1] (setting [4]) is 18 mm. Besides, the ER in series [2] is recorded as -1.06.

Regarding `CCN1C(=CC=Cc2sc3c(N(C)C)cccc3[n+]2CC)Sc2c(N(C)C)cccc21` [17,7,7'-dimethylamino], the zone of inhibition at 1000 µM in series [1] (setting [4]) came to 14 mm. `CCN1C(=CC=Cc2sc3ccc(OC)cc3[n+]2CC)Sc2ccc(OC)cc21` [17,5,5'-dimethoxy]: in series [1] (setting [4]), the zone of inhibition at 1000 µM worked out at 14.5 mm.

`CCN1C(=CC=Cc2oc3ccc(OC(C)=O)cc3[n+]2CC)Oc2ccc(OC(C)=O)cc21` [7,5,5'-diacetoxy]: the zone of inhibition at 1000 µM in series [1] (setting [4]) was 30.5 mm. For the same molecule, in series [2], the ER was -1.18. Consider `CCN1C(=CC=Cc2oc3ccc(O)cc3[n+]2CC)Oc2ccc(O)cc21` [7,5,5'-dihydroxy], for which, in series [1] (setting [4]), the zone of inhibition at 1000 µM stood at 14 mm. Consider `CCN1C(=CC=Cc2sc3cc(C)ccc3[n+]2CC)Sc2cc(C)ccc21` [17,6,6'-dimethyl], for which the zone of inhibition at 1000 µM in series [1] (setting [4]) was found to be 15 mm. Take `CCN1C(=CC=Cc2sc3ccc(OC(C)=O)cc3[n+]2CC)Sc2ccc(OC(C)=O)cc21` [17,5,5'-diacetoxy]: in series [1] (setting [4]), the zone of inhibition at 1000 µM amounted to 15 mm. As to `CCN1C(=CC=Cc2sc3cc(O)ccc3[n+]2CC)Sc2cc(O)ccc21` [17,6,6'-dihydroxy], the zone of inhibition at 1000 µM in series [1] (setting [4]) was 15.5 mm. On to `CN1C(=CC=Cc2sc3cc(N)ccc3[n+]2C)Sc2cc(N)ccc21` [17,6,6'-diamino-N,N'-dimethyl], for which the “Diameter of Inhibition” value in series [1] (setting [5]) is given as “None”. `CCN1C(=CC=Cc2sc3ccccc3[n+]2CC)Sc2ccccc21` [17, ClO4^-]: the zone of inhibition at 1000 µM in series [1] (K1, 72 h, Table IV, 10^-3 molar, three days, differing anions) was 19 mm. Take `CCN1C(=CC=Cc2oc3ccc(S(=O)(=O)[O-])cc3[n+]2CC)Oc2ccc(S(=O)(=O)O)cc21` [7,5,5'-disulfo]: in series [1] (setting [5]), the “Diameter of Inhibition” value is given as “None”. Further, the ER in series [2] was -1.27. In the case of `CCN1C(=CC=Cc2sc3cc(Cl)ccc3[n+]2CC)Sc2cc(Cl)ccc21` [17,6,6'-dichloro], the zone of inhibition at 1000 µM in series [1] (setting [4]) came to 14 mm. Moreover, the ER entry in series [2] is listed as “-.87”. On to `CCN1C(=CC=Cc2sc3cc(S(=O)(=O)O)ccc3[n+]2CC)Sc2cc(S(=O)(=O)[O-])ccc21` [17,6,6'-disulfo], for which the “Diameter of Inhibition” value in series [1] (setting [5]) is reported as “None”.

With `CCN1C(=CC=Cc2oc3ccc(OC)cc3[n+]2CC)Oc2ccc(OC)cc21` [7,5,5'-dimethoxy], the zone of inhibition at 1000 µM in series [1] (setting [4]) is 23.5 mm.

Consider `CCN1C(=CC=Cc2oc3ccc(NC(C)=O)cc3[n+]2CC)Oc2ccc(NC(C)=O)cc21` [7,5,5'-acetamido], for which, in series [1] (setting [5]), the “Diameter of Inhibition” value was “None”. On to `CCN1C(=CC=Cc2oc3ccc(Br)cc3[n+]2CC)Oc2ccc(Br)cc21` [7,5,5'-dibromo], for which, in series [1] (setting [4]), the zone of inhibition at 1000 µM was 22.5 mm. On to `CCN1C(=CC=Cc2sc3cc(OC)c(OC)cc3[n+]2CC)Sc2cc(OC)c(OC)cc21` [17,5,5',6,6'-tetramethoxy], for which, in series [1] (setting [5]), the “Diameter of Inhibition” value is on record as “None”. Take `CCN1C(=CC=Cc2oc3ccc(-c4ccccc4)cc3[n+]2CC)Oc2ccc(-c3ccccc3)cc21` [7,5,5'-diphenyl]: in series [1] (setting [5]), the “Diameter of Inhibition” value is reported as “None”. The same measure, in the same setting: in the case of `CCN1C(=CC=Cc2sc3cc(NC(C)=O)ccc3[n+]2CC)Sc2cc(NC(C)=O)ccc21` [17,6,6'-diacetamido] it was “None”. On to `CCN1C(=CC=Cc2sc3cc(I)ccc3[n+]2CC)Sc2cc(I)ccc21` [17, 6.6'-diiodo], for which the “Diameter of Inhibition” value in series [1] (setting [5]) is listed as “None”. For the same molecule, in series [2], the ER result was “-.84”.

The record behind these values is patent US4232121A, “Process for selecting methine dyes which inhibit cell growth” (Eastman Kodak Company, priority 1978, dated 1980).
